Measured values: ChEMBL document CHEMBL4765478, “Lithocholic Acid Derivatives as Potent Vitamin D Receptor Agonists” (J Med Chem, 2021)
Calls of active or inactive are those of the source. No cut-off for these calls is given here.

Legend:
[1] = molecular target: T1, Vitamin D3 receptor (Homo sapiens) (UniProt P11473); assay: Agonist activity at VDR in human HL-60 cells assessed as induction of cell differentiation of promyelocytes to monocytes at 1 uM after 4 days by NBT reduction assay; format: cell-based; conditions: filed as agonist, time 4.0 day
T1 sequence (whole entry): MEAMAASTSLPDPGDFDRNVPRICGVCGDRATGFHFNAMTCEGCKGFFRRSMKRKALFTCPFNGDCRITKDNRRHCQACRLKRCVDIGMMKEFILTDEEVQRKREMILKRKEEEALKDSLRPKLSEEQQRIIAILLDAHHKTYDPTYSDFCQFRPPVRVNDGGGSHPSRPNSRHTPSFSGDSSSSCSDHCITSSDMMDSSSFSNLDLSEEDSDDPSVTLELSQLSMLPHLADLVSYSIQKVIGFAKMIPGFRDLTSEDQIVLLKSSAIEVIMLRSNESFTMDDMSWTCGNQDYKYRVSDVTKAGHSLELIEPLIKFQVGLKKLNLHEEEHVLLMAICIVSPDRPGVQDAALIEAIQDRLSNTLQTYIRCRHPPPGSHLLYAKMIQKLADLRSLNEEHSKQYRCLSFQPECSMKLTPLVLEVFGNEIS

[2] = molecular target: T1, Vitamin D3 receptor (Homo sapiens); assay: Agonist activity at VDR in human HL-60 cells assessed as induction of cell differentiation of promyelocytes to monocytes at 0.1 nM after 4 days by NBT reduction assay; format: cell-based; conditions: filed as agonist, time 4.0 day
Vitamin D3 receptor [3] = molecular target: T2, Vitamin D3 receptor (Homo sapiens, UniProt P11473); assay: Agonist activity at human VDR expressed in HEK293 cells expressing mouse osteopontin VDRE assessed as induction of receptor transactivation incubated for 16 hrs by luciferase reporter gene assay; format: cell-based
T2 sequence (P11473 whole entry): T1 sequence (whole entry)

[4] = molecular target: T1, Vitamin D3 receptor (Homo sapiens); assay: Potency index, ratio of EC50 for lithocholic acid to EC50 for test compound for agonist activity at VDR in human HL60 cells assessed as induction of cell differentiation of promyelocytes to monocytes after 4 days by NBT reduction assay; format: cell-based; conditions: HL-60, time 4.0 day
Vitamin D3 receptor [5] = molecular target: T3, Vitamin D3 receptor (Bos taurus, UniProt Q28037); assay: (§1) Displacement of [3H]-1-alpha,25-(OH)2D3 from bovine thymus VDR incubated for 18 hrs by competitive binding assay
T3 sequence (Q28037 whole entry): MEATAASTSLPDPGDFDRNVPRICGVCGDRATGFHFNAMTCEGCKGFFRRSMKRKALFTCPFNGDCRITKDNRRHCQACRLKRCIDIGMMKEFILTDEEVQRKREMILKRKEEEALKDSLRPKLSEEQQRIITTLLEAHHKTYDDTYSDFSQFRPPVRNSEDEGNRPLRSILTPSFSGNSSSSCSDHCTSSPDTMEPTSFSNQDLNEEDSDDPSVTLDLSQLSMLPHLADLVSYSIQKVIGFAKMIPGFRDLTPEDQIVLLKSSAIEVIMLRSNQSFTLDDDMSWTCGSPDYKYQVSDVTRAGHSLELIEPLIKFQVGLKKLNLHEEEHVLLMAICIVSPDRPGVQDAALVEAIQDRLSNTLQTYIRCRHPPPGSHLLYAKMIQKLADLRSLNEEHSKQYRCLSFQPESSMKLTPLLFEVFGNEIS

[6] = molecular target: T4, Vitamin D3 receptor (Bos taurus) (UniProt Q28037); assay: as §1; conditions: filed as agonist
T4 sequence (whole entry): T3 sequence (Q28037 whole entry)

Vitamin D3 receptor [7] = molecular target: T2, Vitamin D3 receptor; assay: Agonist activity at human VDR expressed in African green monkey COS7 cells expressing mouse osteopontin VDRE assessed as induction of receptor transactivation incubated for 16 hrs by luciferase reporter gene assay; format: cell-based
[8] = molecular target: T1, Vitamin D3 receptor (Homo sapiens); assay: Potency index, ratio of EC50 for 1-alpha,25-(OH)2D3 to EC50 for test compound for agonist activity at VDR in human HL60 cells assessed as induction of cell differentiation of promyelocytes to monocytes after 4 days by NBT reduction assay; format: cell-based; conditions: HL-60, time 4.0 day

Activity [1] | Compound | Activity [2] | EC50 (Vitamin D3 receptor [3]) | Ratio EC50 [4] | IC50 (Vitamin D3 receptor [5]) | Activity [6] | EC50 (Vitamin D3 receptor [7]) | Ratio EC50 [8]
– | C[C@H](CCC(=O)O)[C@H]1CC[C@H]2[C@@H]3CC[C@@H]4C[C@H](CC(C)(C)O)CC[C@]4(C)[C@H]3CC[C@]12C | Active | 0.15 nM | < 10000 | 2.09 nM | Dose-dependent effect | 1 nM | 3
– | C[C@H](CCC(=O)O)[C@H]1CC[C@H]2[C@@H]3CC[C@@H]4C[C@@H](CC(C)(C)O)CC[C@]4(C)[C@H]3CC[C@]12C | – | 0.014 nM | – | 67.3 nM | Dose-dependent effect | 0.24 nM | –
Active | C[C@H](CCC(=O)O)[C@H]1CC[C@H]2[C@@H]3CC[C@@H]4C[C@H](OS(C)(=O)=O)CC[C@]4(C)[C@H]3CC[C@]12C | – | – | – | – | – | – | –
Active | C[C@H](CCC(=O)O)[C@H]1CC[C@H]2[C@@H]3CC[C@@H]4C[C@H](C(C)(C)O)CC[C@]4(C)[C@H]3CC[C@]12C | – | – | – | – | – | – | –

Compound | Activity [1] | Activity [2] | EC50 (Vitamin D3 receptor [3]) | Ratio EC50 [4] | IC50 (Vitamin D3 receptor [5]) | Activity [6] | EC50 (Vitamin D3 receptor [7]) | Ratio EC50 [8]
CC(=O)O[C@@H]1CC[C@@]2(C)[C@H](CC[C@@H]3[C@@H]2CC[C@]2(C)[C@@H]([C@H](C)CCC(=O)O)CC[C@@H]32)C1 | Active | – | – | – | – | – | – | –
